From ChEMBL document CHEMBL1201861, “Genomics of Drug Sensitity in Cancer screening data, Wellcome Trust Sanger Institute”

Tests used:
Assay in all cases: cells
HT-1080 = format: functional, cell-based; details: Homo sapiens
Description: SANGER: Inhibition of human HT-1080 cell growth in a cell viability assay.

PFSK-1 = format: functional, cell-based; details: Homo sapiens;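 also: cell viability assay measuring how strongly compounds suppress growth of human PFSK-1 cells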
Description: SANGER: Inhibition of human PFSK-1 cell growth in a cell viability assay.

Ca9-22 = format: functional, cell-based; details: Homo sapiens;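 also: growth inhibition of Ca9-22 cells, read out with a cell viability assay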
Description: SANGER: Inhibition of human Ca9-22 cell growth in a cell viability assay.

NCI-H1793 = format: functional, cell-based; details: Homo sapiens;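 also: cell growth inhibition, read out by a cell viability assay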
Description: SANGER: Inhibition of human NCI-H1793 cell growth in a cell viability assay.

NCI-H716 = format: functional, cell-based, Homo sapiens; details: Homo sapiens, NCI-H716;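 also: growth inhibition of human NCI-H716 cells, measured by a cell viability assay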
Description: SANGER: Inhibition of human NCI-H716 cell growth in a cell viability assay.

SK-LU-1 = format: functional, cell-based; details: Homo sapiens;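 also: cell viability assay measuring growth inhibition of human SK-LU-1 cells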
Description: SANGER: Inhibition of human SK-LU-1 cell growth in a cell viability assay.

MKN-45 = format: functional, cell-based; details: Homo sapiens;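 also: growth inhibition of human MKN-45 cells, measured with a cell viability assay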
Description: SANGER: Inhibition of human MKN45 cell growth in a cell viability assay.

BFTC-909 = format: functional, cell-based; details: Homo sapiens
Description: SANGER: Inhibition of human BFTC-909 cell growth in a cell viability assay.

CA46 = format: functional, cell-based, Homo sapiens; details: Homo sapiens, CA46;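 also: growth inhibition of human CA46 cells, read out by a cell viability assay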
Description: SANGER: Inhibition of human CA46 cell growth in a cell viability assay.

Calu-3 = format: functional, cell-based; details: Homo sapiens;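 also: growth inhibition of human Calu-3 cells, determined with a cell viability assay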
Description: SANGER: Inhibition of human Calu-3 cell growth in a cell viability assay.

NCI-H1755 = format: functional, cell-based; details: Homo sapiens;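 also: cell viability readout used to measure growth inhibition of NCI-H1755 cells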
Description: SANGER: Inhibition of human NCI-H1755 cell growth in a cell viability assay.

Detroit 562 = format: functional, cell-based; details: Homo sapiens;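 also: growth inhibition of human Detroit 562 cells, read out by a cell viability assay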
Description: SANGER: Inhibition of human Detroit562 cell growth in a cell viability assay.

S-117 = format: functional, cell-based; details: Homo sapiens
Description: SANGER: Inhibition of human S-117 cell growth in a cell viability assay.

HTC-C3 = format: functional, cell-based; details: Homo sapiens;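 also: inhibition of cell growth, read out with a cell viability assay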
Description: SANGER: Inhibition of human HTC-C3 cell growth in a cell viability assay.

UACC-812 = format: functional, cell-based; details: Homo sapiens
Description: SANGER: Inhibition of human UACC-812 cell growth in a cell viability assay.

NCI-H2228 = format: functional, cell-based; details: Homo sapiens;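 also: growth inhibition of human NCI-H2228 cells, read out by a cell viability assay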
Description: SANGER: Inhibition of human NCI-H2228 cell growth in a cell viability assay.

RERF-LC-MS = format: functional, cell-based; details: Homo sapiens;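 also: growth inhibition of human RERF-LC-MS cells, read out by a cell viability assay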
Description: SANGER: Inhibition of human RERF-LC-MS cell growth in a cell viability assay.

AGS = format: functional, cell-based; details: Homo sapiens;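 also: growth inhibition of AGS cells, determined with a cell viability assay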
Description: SANGER: Inhibition of human AGS cell growth in a cell viability assay.

SK-MEL-24 = format: functional, cell-based; details: Homo sapiens;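 also: growth inhibition read out by a cell viability assay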
Description: SANGER: Inhibition of human SK-MEL-24 cell growth in a cell viability assay.

NCI-H2009 = format: functional, cell-based; details: Homo sapiens;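 also: cell viability assay measuring inhibition of NCI-H2009 cell growth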
Description: SANGER: Inhibition of human NCI-H2009 cell growth in a cell viability assay.

ASPC1 = format: functional, cell-based; details: Homo sapiens;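 also: growth inhibition of AsPC-1 cells, read out with a cell viability assay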
Description: SANGER: Inhibition of human AsPC-1 cell growth in a cell viability assay.

CAL-85-1 = format: functional, cell-based; details: Homo sapiens;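 also: growth inhibition of human CAL-85-1 cells, read out with a cell viability assay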
Description: SANGER: Inhibition of human CAL-85-1 cell growth in a cell viability assay.

NCI-H1437 = format: functional, cell-based; details: Homo sapiens;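 also: growth inhibition of human NCI-H1437 cells, read out by a cell viability assay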
Description: SANGER: Inhibition of human NCI-H1437 cell growth in a cell viability assay.

COR-L23 = format: functional, cell-based; details: Homo sapiens;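 also: cell viability assay measuring how strongly compounds suppress growth of COR-L23 cells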
Description: SANGER: Inhibition of human COR-L23 cell growth in a cell viability assay.

IST-SL2 = format: functional, cell-based, Homo sapiens; details: Homo sapiens, IST-SL2;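 also: growth inhibition of human IST-SL2 cells, read out by a cell viability assay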
Description: SANGER: Inhibition of human IST-SL2 cell growth in a cell viability assay.

GDM-1 = format: functional, cell-based, Homo sapiens; details: Homo sapiens, GDM-1; read-out: IC50;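 also: cell viability readout used to measure growth inhibition of human GDM-1 cells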
Description: SANGER: Inhibition of human GDM-1 cell growth in a cell viability assay.

NCI-H1703 = format: functional, cell-based; details: Homo sapiens;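 also: growth inhibition of NCI-H1703 cells, read out via a cell viability assay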
Description: SANGER: Inhibition of human NCI-H1703 cell growth in a cell viability assay.

CAL-120 = format: functional, cell-based; details: Homo sapiens;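 also: cell growth inhibition, read out as cell viability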
Description: SANGER: Inhibition of human CAL-120 cell growth in a cell viability assay.

NCI-H64 = format: functional, cell-based, Homo sapiens; details: Homo sapiens, NCI-H64;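 also: growth inhibition of NCI-H64 cells, read out with a cell viability assay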
Description: SANGER: Inhibition of human NCI-H64 cell growth in a cell viability assay.

T98G = format: functional, cell-based; details: Homo sapiens;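 also: growth inhibition of T98G cells, read out by a cell viability assay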
Description: SANGER: Inhibition of human T98G cell growth in a cell viability assay.

KYSE-180 = format: functional, cell-based; details: Homo sapiens;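 also: growth inhibition of KYSE-180 cells, read out with a cell viability assay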
Description: SANGER: Inhibition of human KYSE-180 cell growth in a cell viability assay.

RPMI-2650 = format: functional, cell-based; details: Homo sapiens
Description: SANGER: Inhibition of human RPMI-2650 cell growth in a cell viability assay.

A673 = format: functional, cell-based; details: Homo sapiens;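 also: growth inhibition of human A673 cells, read out through a cell viability assay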
Description: SANGER: Inhibition of human A673 cell growth in a cell viability assay.

HMV-2 cell line = format: functional, cell-based; details: Homo sapiens;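 also: growth inhibition of HMV-II cells, read out with a cell viability assay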
Description: SANGER: Inhibition of human HMV-II cell growth in a cell viability assay.

BFTC-905 = format: functional, cell-based; details: Homo sapiens
Description: SANGER: Inhibition of human BFTC-905 cell growth in a cell viability assay.

SW13 = format: functional, cell-based; details: Homo sapiens;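 also: IC50 is inhibition of SW13 cell growth, read out with a cell viability assay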
Description: SANGER: Inhibition of human SW13 cell growth in a cell viability assay.

EHEB = format: functional, cell-based; details: Homo sapiens;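 also: growth inhibition of human EHEB cells, read out with a cell viability assay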
Description: SANGER: Inhibition of human EHEB cell growth in a cell viability assay.

RD = format: functional, cell-based; details: Homo sapiens
Description: SANGER: Inhibition of human RD cell growth in a cell viability assay.

HSC-3 = format: functional, cell-based; details: Homo sapiens
Description: SANGER: Inhibition of human HSC-3 cell growth in a cell viability assay.

HT-3 = format: functional, cell-based; details: Homo sapiens;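 also: growth inhibition measured with a cell viability readout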
Description: SANGER: Inhibition of human HT-3 cell growth in a cell viability assay.

NCI-H2030 = format: functional, cell-based; details: Homo sapiens;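 also: growth inhibition of human NCI-H2030 cells, read out by a cell viability assay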
Description: SANGER: Inhibition of human NCI-H2030 cell growth in a cell viability assay.

KMOE-2 = format: functional, cell-based, Homo sapiens; details: Homo sapiens, KMOE-2;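 also: growth inhibition of human KMOE-2 cells, read out with a cell viability assay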
Description: SANGER: Inhibition of human KMOE-2 cell growth in a cell viability assay.

RO82-W-1 = format: functional, cell-based; details: Homo sapiens;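 also: growth inhibition of human RO82-W-1 cells, measured with a cell viability assay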
Description: SANGER: Inhibition of human RO82-W-1 cell growth in a cell viability assay.

EFM-19 = format: functional, cell-based; details: Homo sapiens;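 also: growth inhibition of human EFM-19 cells, measured in a cell viability assay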
Description: SANGER: Inhibition of human EFM-19 cell growth in a cell viability assay.

D-542MG = format: functional, cell-based; details: Homo sapiens
Description: SANGER: Inhibition of human D-542MG cell growth in a cell viability assay.

BC-3 = format: functional, cell-based, Homo sapiens; details: Homo sapiens, BC-3;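 also: cell viability assay measuring growth inhibition of human BC-3 cells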
Description: SANGER: Inhibition of human BC-3 cell growth in a cell viability assay.

Daoy = format: functional, cell-based; details: Homo sapiens;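 also: daoy cell growth inhibition, read out as cell viability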
Description: SANGER: Inhibition of human Daoy cell growth in a cell viability assay.

SNU-387 = format: functional, cell-based; details: Homo sapiens
Description: SANGER: Inhibition of human SNU-387 cell growth in a cell viability assay.

HGC-27 = format: functional, cell-based; details: Homo sapiens;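 also: growth inhibition of human HGC-27 cells, read out in a cell viability assay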
Description: SANGER: Inhibition of human HGC-27 cell growth in a cell viability assay.

CAPAN-1 = format: functional, cell-based; details: Homo sapiens;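 also: growth suppression of CAPAN-1 cells, read out by a cell viability assay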
Description: SANGER: Inhibition of human CAPAN-1 cell growth in a cell viability assay.

SW1417 = format: functional, cell-based; details: Homo sapiens;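 also: growth inhibition of human SW1417 cells, read out with a cell viability assay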
Description: SANGER: Inhibition of human SW1417 cell growth in a cell viability assay.

DBTRG-05MG = format: functional, cell-based; details: Homo sapiens;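 also: cell viability assay measuring growth inhibition of human DBTRG-05MG cells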
Description: SANGER: Inhibition of human DBTRG-05MG cell growth in a cell viability assay.

SW626 = format: functional, cell-based; details: Homo sapiens;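 also: growth inhibition of SW626 cells, measured with a cell viability assay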
Description: SANGER: Inhibition of human SW626 cell growth in a cell viability assay.

HN = format: functional, cell-based; details: Homo sapiens
Description: SANGER: Inhibition of human HN cell growth in a cell viability assay.

MeWo = format: functional, cell-based; details: Homo sapiens;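 also: growth inhibition of MeWo cells, determined by a cell viability readout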
Description: SANGER: Inhibition of human Mewo cell growth in a cell viability assay.

NCI-H2347 = format: functional, cell-based; details: Homo sapiens;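 also: growth inhibition of the cell line, read out with a cell viability assay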
Description: SANGER: Inhibition of human NCI-H2347 cell growth in a cell viability assay.

Raji = format: functional, cell-based, Homo sapiens; details: Homo sapiens, Raji;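 also: cell viability assay measuring inhibition of Raji cell growth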
Description: SANGER: Inhibition of human Raji cell growth in a cell viability assay.

MG-63 = format: functional, cell-based; details: Homo sapiens;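 also: growth inhibition of human MG-63 cells, read out with a cell viability assay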
Description: SANGER: Inhibition of human MG-63 cell growth in a cell viability assay.

COc1ccc(-c2cc3nccn3c(Nc3ncccc3C(N)=O)n2)cc1OC
IC50 (HT-1080): 3.23 µM | IC50 (PFSK-1): 7.19 µM | IC50 (Ca9-22): > 8 µM | IC50 (NCI-H1793): > 8 µM | IC50 (NCI-H716): > 8 µM | IC50 (SK-LU-1): 2.03 µM | IC50 (MKN-45): > 8 µM | IC50 (BFTC-909): > 8 µM | IC50 (CA46): 1.08 µM | IC50 (Calu-3): > 8 µM | IC50 (NCI-H1755): > 8 µM | IC50 (Detroit 562): 3.88 µM | IC50 (S-117): > 8 µM | IC50 (HTC-C3): > 8 µM | IC50 (UACC-812): > 8 µM | IC50 (NCI-H2228): 4.34 µM | IC50 (RERF-LC-MS): > 8 µM | IC50 (AGS): > 8 µM | IC50 (SK-MEL-24): > 8 µM | IC50 (NCI-H2009): > 8 µM | IC50 (ASPC1): > 8 µM | IC50 (CAL-85-1): 3.33 µM | IC50 (NCI-H1437): 1.8 µM | IC50 (COR-L23): 2.38 µM | IC50 (IST-SL2): 1.07 µM | IC50 (GDM-1): 0.683 µM | IC50 (NCI-H1703): > 8 µM | IC50 (CAL-120): > 8 µM | IC50 (NCI-H64): 2.16 µM | IC50 (T98G): > 8 µM | IC50 (KYSE-180): 5.62 µM | IC50 (RPMI-2650): 0.696 µM | IC50 (A673): > 8 µM | IC50 (HMV-2 cell line): 0.664 µM | IC50 (BFTC-905): 2.29 µM | IC50 (SW13): > 8 µM | IC50 (EHEB): 3.79 µM | IC50 (RD): > 8 µM | IC50 (HSC-3): > 8 µM | IC50 (HT-3): > 8 µM | IC50 (NCI-H2030): 6.25 µM | IC50 (KMOE-2): 1.98 µM | IC50 (RO82-W-1): > 8 µM | IC50 (EFM-19): > 8 µM | IC50 (D-542MG): > 8 µM | IC50 (BC-3): 2.47 µM | IC50 (Daoy): > 8 µM | IC50 (SNU-387): 2.9 µM | IC50 (HGC-27): 2.7 µM | IC50 (CAPAN-1): 4.16 µM | IC50 (SW1417): > 8 µM | IC50 (DBTRG-05MG): > 8 µM | IC50 (SW626): > 8 µM | IC50 (HN): > 8 µM | IC50 (MeWo): > 8 µM | IC50 (NCI-H2347): > 8 µM | IC50 (Raji): 5.51 µM | IC50 (MG-63): > 8 µM

OC[C@H](Cc1ccccc1)Nc1nc(Oc2ccc3c(c2)CCC3)nc2c1ncn2Cc1ccc(-c2ccccc2)cc1
IC50 (HT-1080): 5.13 µM | IC50 (PFSK-1): > 10.2 µM | IC50 (Ca9-22): > 10.2 µM | IC50 (NCI-H1793): > 10.2 µM | IC50 (NCI-H716): > 10.2 µM | IC50 (SK-LU-1): > 10.2 µM | IC50 (MKN-45): > 10.2 µM | IC50 (BFTC-909): > 10.2 µM | IC50 (CA46): > 10.2 µM | IC50 (Calu-3): > 10.2 µM | IC50 (NCI-H1755): > 10.2 µM | IC50 (Detroit 562): > 10.2 µM | IC50 (S-117): 4.88 µM | IC50 (HTC-C3): > 10.2 µM | IC50 (UACC-812): > 10.2 µM | IC50 (NCI-H2228): > 10.2 µM | IC50 (RERF-LC-MS): > 10.2 µM | IC50 (AGS): 6.71 µM | IC50 (SK-MEL-24): > 10.2 µM | IC50 (NCI-H2009): > 10.2 µM | IC50 (ASPC1): > 10.2 µM | IC50 (CAL-85-1): 4.45 µM | IC50 (NCI-H1437): 6.89 µM | IC50 (COR-L23): 6.89 µM | IC50 (IST-SL2): > 10.2 µM | IC50 (GDM-1): 3.33 µM | IC50 (NCI-H1703): > 10.2 µM | IC50 (CAL-120): > 10.2 µM | IC50 (NCI-H64): > 10.2 µM | IC50 (T98G): > 10.2 µM | IC50 (KYSE-180): > 10.2 µM | IC50 (RPMI-2650): > 10.2 µM | IC50 (A673): > 10.2 µM | IC50 (HMV-2 cell line): 6.34 µM | IC50 (BFTC-905): 5.02 µM | IC50 (SW13): > 10.2 µM | IC50 (EHEB): > 10.2 µM | IC50 (RD): > 10.2 µM | IC50 (HSC-3): 3.88 µM | IC50 (HT-3): > 10.2 µM | IC50 (NCI-H2030): 5.25 µM | IC50 (KMOE-2): > 10.2 µM | IC50 (RO82-W-1): > 10.2 µM | IC50 (EFM-19): > 10.2 µM | IC50 (D-542MG): > 10.2 µM | IC50 (BC-3): 6.66 µM | IC50 (Daoy): 2.93 µM | IC50 (SNU-387): > 10.2 µM | IC50 (HGC-27): 2.31 µM | IC50 (CAPAN-1): > 10.2 µM | IC50 (SW1417): > 10.2 µM | IC50 (DBTRG-05MG): > 10.2 µM | IC50 (SW626): 8.3 µM | IC50 (HN): 8.17 µM | IC50 (MeWo): > 10.2 µM | IC50 (NCI-H2347): > 10.2 µM | IC50 (Raji): > 10.2 µM | IC50 (MG-63): 4.63 µM
